Assay results reported in ChEMBL document CHEMBL2412997, “Determination of the binding mode and interacting amino-acids for dibasic H3 receptor antagonists” (Bioorg Med Chem, 2013).

target: T1, Histamine H3 receptor (Homo sapiens, UniProt Q9Y5N1); assay: Displacement of [125I]iodoproxyfan from histamine H3 receptor (unknown origin) expressed in CHO cells; format: cell-based
T1 sequence (Q9Y5N1 whole entry): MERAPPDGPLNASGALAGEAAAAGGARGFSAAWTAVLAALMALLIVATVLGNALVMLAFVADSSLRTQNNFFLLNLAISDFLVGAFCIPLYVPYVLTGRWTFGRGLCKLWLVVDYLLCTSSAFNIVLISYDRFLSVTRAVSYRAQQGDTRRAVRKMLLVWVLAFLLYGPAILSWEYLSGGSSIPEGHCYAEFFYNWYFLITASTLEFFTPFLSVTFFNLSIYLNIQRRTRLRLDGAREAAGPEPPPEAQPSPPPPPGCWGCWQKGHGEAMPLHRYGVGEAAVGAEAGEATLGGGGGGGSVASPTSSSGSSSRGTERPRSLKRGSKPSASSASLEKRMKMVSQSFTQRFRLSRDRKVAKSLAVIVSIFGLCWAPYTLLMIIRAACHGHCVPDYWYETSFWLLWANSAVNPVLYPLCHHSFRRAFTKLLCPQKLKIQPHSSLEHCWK

| Compound | Ki [nM] |
| --- | --- |
| c1cc(OCCCN2CCCCC2)ccc1CCc1ccc(OCCCN2CCCCC2)cc1 | 1.21 |
| FC1(F)CCN(CCCOc2ccc(-c3ccc(OCCCN4CCCCC4)cc3)cc2)CC1 | 9.31 |
| c1cc(-c2ccc(OCCCN3CCCCC3)cc2)ccc1CN1CCCCC1 | 1.64 |
| C(=C\c1ccc(-c2ccc(OCCCN3CCCCC3)cc2)cc1)/CN1CCCCC1 | 0.655 |
| C(#Cc1ccc(-c2ccc(OCCCN3CCCCC3)cc2)cc1)CN1CCCCC1 | 0.67 |
| O=C(CCc1ccc(OCCCN2CCCCC2)cc1)c1ccc(OCCCN2CCCCC2)cc1 | 0.64 |
| c1cc(OCCCN2CCCCC2)ccc1CCCc1ccc(OCCCN2CCCCC2)cc1 | 0.9 |

Now from value to molecule:

| Ki [nM] | Compound |
| --- | --- |
| 0.51 | c1cc(OCCCN2CCCCC2)ccc1Cc1ccc(OCCCN2CCCCC2)cc1 |
| 0.53 | O=C(/C=C/c1ccc(OCCCN2CCCCC2)cc1)c1ccc(OCCCN2CCCCC2)cc1 |
| 0.13 | c1cc(-c2ccc(OCCCN3CCCCC3)cc2)ccc1OCCCCN1CCCCC1 |
| 0.49 | c1cc(-c2ccc(OCCN3CCCCC3)cc2)ccc1OCCCN1CCCCC1 |
| 0.23 | CN1CCN(c2ccc(-c3ccc(OCCCN4CCCCC4)cc3)cc2)CC1 |
| 0.057 | C(=C/c1ccc(-c2ccc(OCCCN3CCCCC3)cc2)cc1)/CN1CCCCC1 |
| 0.17 | c1cc(-c2ccc(OCCCN3CCCCC3)cc2)ccc1CCCN1CCCCC1 |
| 0.045 | c1ccc(-c2ccc(OCCCN3CCCCC3)cc2)c(CN2CCCCC2)c1 |
| 0.549 | c1cc(CN2CCCCC2)cc(-c2ccc(OCCCN3CCCCC3)cc2)c1 |

target: T1, Histamine H3 receptor; assay: Binding affinity to histamine H3 receptor (unknown origin)

| Ki [nM] | Compound |
| --- | --- |
| 1000 | CCN1CCCc2c(OCCCN3CCCCC3)cccc21 |
| 1000 | CCN1CCCc2cccc(OCCCN3CCCCC3)c21 |
| 56 | N#CC(C#N)=C1N(CCCCN2CCCCC2)CCN1CCCCN1CCCCC1 |
| 1.2 | c1cc(-c2ccc(CCN3CCCCC3)cc2)ccc1CCN1CCCCC1 |
| 0.3 | c1cc(-c2ccc(CN3CCCCC3)cc2)ccc1CN1CCCCC1 |
| 61 | N#CC(C#N)=C1N(CCCCN2CCCCC2)CCN1CCCN1CCCCC1 |
